Measurements taken from publication PMC10644720 (Frontiers in Pharmacology, 2023).

Legend:
human washed platelets [1] = assay: Platelet aggregation assay (Chrono-Log aggregometer); type: cell-based; conditions: for IC50: Homo sapiens, Platelet, 10 min, 10 min incubation at 37°C
Experimental: Blood was collected from a median cubital vein using a 3.8% sodium citrate anticoagulation tube with a 1:9 dilution ratio. The platelets were washed using a previously described method with slight modification ([Babur et al., 2020]; [Uphaus et al., 2022]). The blood was centrifuged at room temperature at 300 × g for 10 min to separate platelet-rich plasma (PRP). PRP was added to 50 ng/mL of PGE1 and 5 mM EDTA, centrifuged at 2,000 × g for 2 min at room temperature, and the platelet precipitate was obtained after discarding the supernatant. The modified HEPES-Tyrode’s buffer (20 mM 4-(2-Hydroxyethyl)-1-piperazine ethane sulfonic acid [HEPES], pH 7.3, 129 mM NaCl, 2.9 mM KCl, 12 mM NaHCO3, 0.34 mM Na2HPO4, 20 mM HEPES, 5 mM D-Glucose, 1 mM MgCl2) was used to resuspend the platelets, added with 50 ng/mL PGE1 and 5 mM EDTA, and the platelets were washed by centrifugation at 2,000 ×g for 2 min at room temperature. The washed platelets (WP) were resuspended using modified HEPES-Tyrode’s buffer, and the platelet count was adjusted to 150–200 × 10^9/L.
Platelet aggregation and ATP release were detected using the Chrono-Log platelet aggregation instrument (Chrono-Log Corp., Havertown, Pennsylvania, United States), as previously reported ([Babur et al., 2020]). […] In addition, 1 mM CaCl2 and different platelet activators (ADP, collagen, and thrombin; Chrono-Log Corp., Havertown, Pennsylvania, United States; U46619, from Sigma, St. Louis, MO, United States; convulxin, sc-202554 from Santa Cruz Biotechnology, Santa Cruz, CA, United States) were added to each group before the start of the aggregation assay. For the ATP release experiments, the platelets were incubated with 50 ng/mL luciferin and D-luciferase (Cat No. 395; Chrono-Log Corp.) for 2 min before the addition of activators. The platelet aggregation and ATP release curves were traced during experiments.

human washed platelets [2] = assay: Platelet ROS release assay (DCFH-DA); type: cell-based; conditions: for IC50: Homo sapiens, Platelet; for effect on platelet ROS release: luteolin 25 μM, BAY61-3606 63 nM
Experimental: The assay was performed as previously reported with minor modifications ([Arthur et al., 2012]; [Ye et al., 2020]). Briefly, WPs (500 × 10^9/L) were labeled with 5 μM Fluo-3AM (Cat No. IF0150; Solarbio) or 10 μM DCFH-DA (Cat No. D6883; Sigma, St. Louis, MO, United States) at 37°C for 30 min protected from light. […] In addition, 1 mM CaCl2 and collagen or convulxin were added to start the reaction. […] A ROS probe via a fluorescent enzyme marker was added. O2 ^− and H2O2 were measured using 2 μM Amplex Red (Cat No. ST010; Beyotime Institute of Biotechnology, Shanghai, China) or 2 μM Dihydroethidium (DHE, Cat No. S0063; Beyotime Institute of Biotechnology, Shanghai, China). O2 ^− and H2O2 were analyzed using a Fluoroskan Ascent fluorometer (Thermo Fisher, Waltham, Massachusetts, United States).

[3] = Coagulation function in mice; type: in vivo, C57BL/6 mice; conditions: 30 min after administration
Experimental: Then, 30 min after administration, blood was removed from the eyes and anticoagulated with 3.8% sodium citrate. The plasma was obtained by centrifugation at 3,000 rpm for 10 min at room temperature, and coagulation-related indexes were measured using an STA Compact Max (Diagnostica Stago, Inc. Asnières-sur-Seine, France).

[4] = Luteolin in vivo toxicity experiments (15 days i.p.); set-up: species or system C57BL/6 mice
Experimental: Blood was collected from the orbits every 3 days for blood tests. On the second day, after 15 days of intraperitoneal administration, pentobarbital (45 mg/kg) was injected intraperitoneally for anesthesia, and blood was sampled from the eyes. Whole blood was left for 30–60 min, and the supernatant was centrifuged at 3,000 rpm for serum liver and kidney function testing using Unicel DxC600 (Beckman Coulter, Inc. Brea, California, US). Finally, the mice were sacrificed by cervical dislocation, and the sternum was fixed in 4% paraformaldehyde. […]

human platelets = conditions: cited from earlier work
[5] = test system: thrombosis and infarct area; set-up: method as in Liu et al., 2022; conditions: rats; gavage for 7 days at 20 mg/kg/day; ref Liu et al., 2022; cited from earlier work
[6] = set-up: method as in Cheurfa et al., 2019; conditions: diet-induced obese mice; 200 mg/kg/d; ref Cheurfa et al., 2019; cited from earlier work
carotid thrombosis = test system: carotid thrombosis; set-up: method as in Choi et al. (2015); conditions: mice; ref Choi et al. (2015); cited from earlier work
[7] = luteolin 35 μM/kg i.p. daily for 15 days
[8] = luteolin 35 μM/kg i.p. daily, 15 days, mean ± SEM

O=c1cc(-c2ccc(O)c(O)c2)oc2cc(O)cc(O)c12 [Luteolin]
effect on platelet aggregation (human washed platelets [1]; 25 μM luteolin, ADP (5 μM)-induced): no significant effect | effect on platelet aggregation (human washed platelets [1]; 25 μM luteolin, U46619 (3 μM)-induced): no significant effect | effect on platelet aggregation (human washed platelets [1]; 25 μM luteolin, thrombin (0.05 U/mL)-induced): no significant effect | effect on platelet aggregation (human washed platelets [1]; 100 μM luteolin, U46619-induced): significantly inhibited | IC50 (human washed platelets [1]; read-out: IC50, inhibition of platelet aggregation, convulxin (5 ng/mL)-induced): 8.66 µM | IC50 (human washed platelets [1]; collagen (10 μg/mL)-induced, read-out: IC50, inhibition of platelet aggregation): 4.81 µM | IC50 (human washed platelets [2]; read-out: IC50, inhibition of ROS release, convulxin (5 ng/mL)-induced): 3.51 µM | IC50 (human washed platelets [2]; collagen (10 μg/mL)-induced, read-out: IC50, inhibition of ROS release): 2.06 µM | effect on platelet ROS release (human washed platelets [2]; collagen (10 μg/mL)-induced): decreasing levels | effect on platelet ROS release (human washed platelets [2]; convulxin (5 ng/mL)-induced): decreased | activated partial thromboplastin time (APTT) [3]: no significant effects | plasma concentration of fibrinogen [3]: no significant effects | prothrombin time (PT) [3]: no significant effects | thrombin time (TT) [3]: no significant effects | liver and kidney functions ([4]; luteolin 35 μM/kg for 15 days): normal | mean platelet volume vs DMSO [4, 7]: no significant differences | megakaryocyte counts in bone marrow vs DMSO [4, 7]: no significant differences | peripheral platelet count vs DMSO [4, 7]: no significant differences | Alanine aminotransferase [4, 8]: 66.21 ± 5.35 U/L | Alkaline phosphatase [4, 8]: 75.00 ± 7.34 U/L | Aspartate aminotransferase [4, 8]: 147.20 ± 7.03 U/L | Blood urea nitrogen [4, 8]: 10.14 ± 0.40 mmol/L | Creatinine [4, 8]: 17.22 ± 2.61 µmol/L | Granulocyte % [4, 8]: 25.22 ± 0.74% | Granulocytes [4, 8]: 0.36 ± 0.03 ×10^9/L | Lymphocyte % [4, 8]: 57.39 ± 1.59% | Lymphocytes [4, 8]: 0.80 ± 0.04 ×10^9/L | Monocyte % [4, 8]: 17.39 ± 1.56% | Monocytes [4, 8]: 0.25 ± 0.04 ×10^9/L | Red blood cells [4, 8]: 0.65 ± 0.03 ×10^12/L | Total bilirubin [4, 8]: 5.24 ± 0.49 µmol/L | White blood cells [4, 8]: 1.35 ± 0.10 ×10^9/L | γ-glutamyl transferase [4, 8]: 6.20 ± 1.24 U/L | toxic effects in C57BL/6 mice ([4]; mouse, in vivo): no significant toxic effects | IC50 (human platelets; 2 μM U46619, ref Guerrero et al., 2005, read-out: IC50, inhibition of U46619-induced platelet aggregation): 47 ± 13.3 µM | ADP induced platelet aggregation (human platelets; 25–100 μM luteolin, 1 h incubation, ref Lu et al., 2021): inhibited | collagen, U46619, and ADP-induced activation in human platelets (human platelets; ref Guerrero et al., 2005, Guerrero et al., 2007, Lu et al., 2021): significantly inhibits | thrombosis and infarct area [5]: significantly reduce | low-density lipoprotein content [6]: significantly reduced | FeCl3-induced carotid thrombosis (carotid thrombosis): significantly inhibits
